{
  "source": "paper PMC9964268",
  "about": "“A Novel, Highly Potent NADPH-Dependent Cytochrome P450 Reductase from Waste Liza klunzingeri Liver” (Marine Drugs, 2023)",
  "test_system": "T1, LkCPR; NADPH-dependent cytochrome P450 reductase from Liza klunzingeri liver",
  "T1 construct": "gene POR; native, purified from liver microsomes (detergent-solubilised; DEAE-Sepharose twice, 2',5'-ADP Sepharose 4B); about 75 kDa, monomer",
  "assay": "cytochrome c reduction at […] nm, Michaelis-Menten fit",
  "type": "biochemical, Planiliza klunzingeri",
  "conditions": "co-substrate cytochrome c at saturation (50 µM); potassium phosphate pH 7.5; room temperature; apparent Km",
  "data": [
    {"smiles": "NC(=O)C1=CN([C@@H]2O[C@H](COP(=O)(O)OP(=O)(O)OC[C@H]3O[C@@H](n4cnc5c(N)ncnc54)[C@H](OP(=O)(O)O)[C@@H]3O)[C@@H](O)[C@H]2O)C=CC1", "note": "[NADPH]", "values": [
      {"measurement": "Km", "result": "7.26 ± 0.2", "unit": "µM"}
    ]}
  ]
}
